{"source": "patent US7268152B2", "about": "“Glucocorticoid mimetics, methods of making them, pharmaceutical compositions, and uses thereof” (Boehringer Ingelheim Pharmaceuticals, Inc., priority 2002, dated 2007)", "data": [{"target": "T1, human glucocorticoid receptor (GR) complex (Homo sapiens, UniProt P04150)", "T1 construct": "made in house; host or cells: insect expression system (baculovirus lysate)", "T1 sequence (P04150 1-777)": "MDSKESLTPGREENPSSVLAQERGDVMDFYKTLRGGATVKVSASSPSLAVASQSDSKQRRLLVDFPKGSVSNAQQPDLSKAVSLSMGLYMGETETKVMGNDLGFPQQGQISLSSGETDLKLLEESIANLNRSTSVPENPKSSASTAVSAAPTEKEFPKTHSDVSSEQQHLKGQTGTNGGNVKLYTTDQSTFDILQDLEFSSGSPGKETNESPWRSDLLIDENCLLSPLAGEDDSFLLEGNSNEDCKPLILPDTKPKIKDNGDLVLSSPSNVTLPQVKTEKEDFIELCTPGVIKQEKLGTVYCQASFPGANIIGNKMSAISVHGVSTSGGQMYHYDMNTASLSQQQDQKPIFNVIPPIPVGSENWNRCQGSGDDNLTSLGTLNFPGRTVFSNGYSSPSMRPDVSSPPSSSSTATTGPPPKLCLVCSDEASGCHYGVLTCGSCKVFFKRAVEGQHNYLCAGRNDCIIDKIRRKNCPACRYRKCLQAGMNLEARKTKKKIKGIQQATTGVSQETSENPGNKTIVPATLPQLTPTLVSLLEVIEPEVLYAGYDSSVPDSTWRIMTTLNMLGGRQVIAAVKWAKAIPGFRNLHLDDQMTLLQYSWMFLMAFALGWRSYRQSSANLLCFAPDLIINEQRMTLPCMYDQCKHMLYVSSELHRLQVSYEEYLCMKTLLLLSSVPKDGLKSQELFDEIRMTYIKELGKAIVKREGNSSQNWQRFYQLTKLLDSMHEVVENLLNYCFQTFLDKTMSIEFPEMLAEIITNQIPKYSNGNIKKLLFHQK", "assay": "Glucocorticoid receptor competitive binding assay (fluorescence polarization)", "details": "competition with TAMRA-labeled dexamethasone", "description": "Compounds of the invention were evaluated for binding to the steroid receptor by a fluorescence polarization competitive binding assay. Detailed descriptions for preparation of recombinant glucocorticoid receptor (GR) complex used in the assay is described in U.S. provisional application No. 60/291,877, filed May 18, 2001, and incorporated herein by reference in its entirety. Preparation of the tetramethyl rhodamine (TAMRA)-labeled dexamethasone probe was accomplished using a standard literature procedure (M. Pons et al., J. Steroid Biochem., 1985, 22, pp. 267-273).\nA. Glucocorticoid Receptor Competitive Binding Assay\nStep 1. Characterization of the Fluorescent Probe\nThe wavelengths for maximum excitation and emission of the fluorescent probe should first be measured. An example of such a probe is rhodamine (TAMRA)-labeled dexamethasone.\nThe affinity of the probe for the steroid receptor was then determined in a titration experiment. The fluorescence polarization value of the probe in assay buffer was measured on an SLM-8100 fluorometer using the excitation and emission maximum values described above. Aliquots of expression vector lysate were added and fluorescence polarization was measured after each addition until no further change in polarization value was observed. Non-linear least squares regression analysis was used to calculate the dissociation constant of the probe from the polarization values obtained for lysate binding to the probe.\nStep 2. Screeningfor Inhibitors of Probe Binding\nThis assay uses fluorescence polarization (FP) to quantitate the ability of test compounds to compete with tetramethyl rhodamine (TAMRA)-labeled dexamethasone for binding to a human glucocorticoid receptor (GR) complex prepared from an insect expression system. The assay buffer was: 10 mM TES, 50 mM KCl, 20 mM Na2MoO4.2H2O, 1.5 mM EDTA, 0.04% w/v CHAPS, 10% v/v glycerol, 1 mM dithiothreitol, pH 7.4. Test compounds were dissolved to 1 mM in neat DMSO and then further diluted to 10×assay concentration in assay buffer supplemented with 10% v/v DMSO. Test compounds were serially diluted at 10×assay concentrations in 10% DMSO-containing buffer in 96-well polypropylene plates. Binding reaction mixtures were prepared in 96-well black Dynex microtiter plates by sequential addition of the following assay components to each well: […] of 10×test compound solution, 85 μL of GR-containing baculovirus lysate diluted 1:170 in assay buffer, and 50 μL of 15 nM TAMRA-labeled dexamethasone. Positive controls were reaction mixtures containing no test compound; negative controls (blanks) were reaction mixtures containing 0.7 μM to 2 μM dexamethasone. The binding reactions were incubated for 1 hour at room temperature and then read for fluorescence polarization in the LJL Analyst set to 550 nm excitation and 580 nm emission, with the Rhodamine 561 dichroic mirror installed. IC50 values were determined by iterative non-linear curve fitting of the FP signal data to a 4-parameter logistic equation.", "units": {"IC50": "nM"}, "values": [{"smiles": "COc1ccc(F)cc1C(C)(C)CC(O)(Cc1ccc(C)c2ccccc12)C(F)(F)F", "note": "(stereo not shown) [1,1,1-Trifluoro-4-(5-fluoro-2-methoxyphenyl)-4-methyl-2-(4-methylnaphthalen-1-ylmethyl)pentan-2-ol]", "IC50": "≤ 100"}, {"smiles": "CC(C)(CC(O)(Cc1ccc(C#N)cc1Cl)C(F)(F)F)c1ccc(O)cc1", "note": "(stereo not shown) [3-Chloro-4-[2-hydroxy-4-(4-hydroxyphenyl)-4-methyl-2-trifluoromethylpentyl]benzonitrile]", "IC50": "≤ 100"}, {"smiles": "CCOc1ccc(F)cc1C(C)(C)CC(O)(Cc1cc(C(F)(F)F)cc(Cl)c1F)C(F)(F)F", "note": "(stereo not shown) [2-(3-Chloro-2-fluoro-5-trifluoromethylbenzyl)-4-(2-ethoxy-5-fluorophenyl)-1,1,1-trifluoro-4-methylpentan-2-ol]", "IC50": "≤ 100"}, {"smiles": "CC(C)(CC(O)(Cc1cc(C(F)(F)F)cc(Cl)c1F)C(F)(F)F)c1cc(C#N)cc2c1OCC2", "note": "(stereo not shown) [7-[3-(3-Chloro-2-fluoro-5-trifluoromethylbenzyl)-4,4,4-trifluoro-3-hydroxy-1,1-dimethylbutyl]-2,3-dihydrobenzofuran-5-carbonitrile]", "IC50": "≤ 100"}, {"smiles": "COc1ccc(F)cc1C(C)(C)CC(O)(Cc1cc(F)cc(F)c1F)C(F)(F)F", "note": "(stereo not shown) [1,1,1-Trifluoro-4-(5-fluoro-2-methoxyphenyl)-4-methyl-2-(2,3,5-trifluorobenzyl)pentan-2-ol]", "IC50": "≤ 100"}, {"smiles": "CC(C)(CC(O)(Cc1ccc(C#N)cc1)C(F)(F)F)c1cc(F)ccc1O", "note": "(stereo not shown) [4-[4-(5-Fluoro-2-hydroxyphenyl)-2-hydroxy-4-methyl-2-trifluoromethylpentyl]benzonitrile]", "IC50": "≤ 100"}, {"smiles": "CC(C)(CC(O)(Cc1cc(F)cc(C(F)(F)F)c1)C(F)(F)F)c1cc(F)ccc1O", "note": "(stereo not shown) [4-Fluoro-2-[4,4,4-trifluoro-3-(3-fluoro-5-trifluoromethylbenzyl)-3-hydroxy-1,1-dimethylbutyl]phenol]", "IC50": "≤ 100"}, {"smiles": "CC(C)(CC(O)(Cc1ccc(Cl)cc1)C(F)(F)F)c1cc(F)ccc1O", "note": "(stereo not shown) [2-[3-(4-Chlorobenzyl)-4,4,4-trifluoro-3-hydroxy-1,1-dimethylbutyl]-4-fluorophenol]", "IC50": "≤ 100"}, {"smiles": "COc1ccc(F)cc1C(C)(C)CC(O)(Cc1ccccc1Br)C(F)(F)F", "note": "(stereo not shown) [2-(2-Bromobenzyl)-1,1,1-trifluoro-4-(5-fluoro-2-methoxyphenyl)-4-methylpentan-2-ol]", "IC50": "≤ 100"}, {"smiles": "COc1ccc(F)cc1C(C)(C)CC(O)(Cc1ccc(Cl)cc1Cl)C(F)(F)F", "note": "(stereo not shown) [2-(2,4-Dichlorobenzyl)-1,1,1-trifluoro-4-(5-fluoro-2-methoxyphenyl)-4-methylpentan-2-ol]", "IC50": "≤ 100"}, {"smiles": "Cc1cc(CC(O)(CC(C)(C)c2cc(F)ccc2O)C(F)(F)F)ccc1F", "note": "(stereo not shown) [4-Fluoro-2-[4,4,4-trifluoro-3-(4-fluoro-3-methylbenzyl)-3-hydroxy-1,1-dimethylbutyl]phenol]", "IC50": "≤ 100"}, {"smiles": "COc1ccc(F)cc1C(C)(C)CC(O)(Cc1cc(Cl)cc(Cl)c1)C(F)(F)F", "note": "(stereo not shown) [2-(3,5-Dichlorobenzyl)-1,1,1-trifluoro-4-(5-fluoro-2-methoxyphenyl)-4-methylpentan-2-ol]", "IC50": "≤ 100"}, {"smiles": "COc1ccc(F)cc1C(C)(C)CC(O)(Cc1cccc(Br)c1)C(F)(F)F", "note": "(stereo not shown) [2-(3-Bromobenzyl)-1,1,1-trifluoro-4-(5-fluoro-2-methoxyphenyl)-4-methylpentan-2-ol]", "IC50": "≤ 100"}, {"smiles": "Cc1ccc(F)cc1C(C)(C)CC(O)(Cc1cc(C(F)(F)F)cc(Cl)c1F)C(F)(F)F", "note": "(stereo not shown) [2-(3-Chloro-2-fluoro-5-trifluoromethylbenzyl)-1,1,1-trifluoro-4-(5-fluoro-2-methylphenyl)-4-methylpentan-2-ol]", "IC50": "≤ 100"}, {"smiles": "COc1ccc(F)cc1C(C)(C)CC(O)(Cc1cc(Cl)cc(Cl)c1Cl)C(F)(F)F", "note": "(stereo not shown)", "IC50": "≤ 100"}, {"smiles": "COc1ccc(F)cc1C(C)(C)CC(O)(Cc1cc(C(F)(F)F)ccc1F)C(F)(F)F", "note": "(stereo not shown) [1,1,1-Trifluoro-4-(5-fluoro-2-methoxyphenyl)-2-(2-fluoro-5-trifluoromethylbenzyl)-4-methylpentan-2-ol]", "IC50": "≤ 100"}, {"smiles": "COc1ccc(C(C)(C)CC(O)(Cc2ccc(C#N)cc2Cl)C(F)(F)F)cc1", "note": "(stereo not shown) [3-Chloro-4-[2-hydroxy-4-(4-methoxyphenyl)-4-methyl-2-trifluoromethylpentyl]benzonitrile]", "IC50": "≤ 100"}, {"smiles": "COc1ccc(F)cc1C(C)(C)CC(O)(Cc1cc(F)cc(C(F)(F)F)c1)C(F)(F)F", "note": "(stereo not shown) [1,1,1-Trifluoro-4-(5-fluoro-2-methoxyphenyl)-2-(3-fluoro-5-trifluoromethylbenzyl)-4-methylpentan-2-ol]", "IC50": "≤ 100"}, {"smiles": "COc1ccc(F)cc1C(C)(C)CC(O)(Cc1ccc(-c2ccccc2)cc1)C(F)(F)F", "note": "(stereo not shown) [2-Biphenyl-4-ylmethyl-1,1,1-trifluoro-4-(5-fluoro-2-methoxyphenyl)-4-methylpentan-2-ol]", "IC50": "≤ 100"}, {"smiles": "COc1ccc(F)cc1C(C)(C)CC(O)(Cc1ccc(C=O)cc1)C(F)(F)F", "note": "(stereo not shown)", "IC50": "≤ 100"}, {"smiles": "COc1ccc(F)cc1C(C)(C)CC(O)(Cc1ccc(C(F)(F)F)c(F)c1)C(F)(F)F", "note": "(stereo not shown)", "IC50": "≤ 100"}, {"smiles": "COc1ccc(F)cc1C(C)(C)CC(O)(Cc1c(C)ccc2ccccc12)C(F)(F)F", "note": "(stereo not shown) [1,1,1-Trifluoro-4-(5-fluoro-2-methoxyphenyl)-4-methyl-2-(2-methylnaphthalen-1-ylmethyl)pentan-2-ol]", "IC50": "≤ 100"}, {"smiles": "COc1ccc(F)cc1C(C)(C)CC(O)(Cc1cc(Cl)cc(C#N)c1)C(F)(F)F", "note": "(stereo not shown) [3-Chloro-5-[4-(5-fluoro-2-methoxyphenyl)-2-hydroxy-4-methyl-2-trifluoromethylpentyl]benzonitrile]", "IC50": "≤ 100"}, {"smiles": "COc1ccc(F)cc1C(C)(C)CC(O)(Cc1ccc(C#N)cc1)C(F)(F)F", "note": "(stereo not shown) [4-[4-(5-Fluoro-2-methoxyphenyl)-2-hydroxy-4-methyl-2-trifluoromethylpentyl]benzonitrile]", "IC50": "≤ 100"}, {"smiles": "COc1ccc(F)cc1C(C)(C)CC(O)(Cc1ccc(C#N)cc1F)C(F)(F)F", "note": "(stereo not shown) [3-Fluoro-4-[4-(5-fluoro-2-methoxyphenyl)-2-hydroxy-4-methyl-2-trifluoromethylpentyl]benzonitrile]", "IC50": "≤ 100"}, {"smiles": "CC(C)(CC(O)(Cc1cc(Cl)cc(Cl)c1)C(F)(F)F)c1cc(F)ccc1O", "note": "(stereo not shown) [2-[3-(3,5-Dichlorobenzyl)-4,4,4-trifluoro-3-hydroxy-1,1-dimethylbutyl]4-fluorophenol]", "IC50": "≤ 100"}, {"smiles": "Cc1ccccc1CC(O)(CC(C)(C)c1cc(F)ccc1O)C(F)(F)F", "note": "(stereo not shown) [4-Fluoro-2-[4,4,4-trifluoro-3-hydroxy-1,1-dimethyl-3-(2-methylbenzyl)butyl]phenol]", "IC50": "≤ 100"}, {"smiles": "CC(C)(CC(O)(Cc1cc(F)cc(F)c1)C(F)(F)F)c1cc(F)ccc1O", "note": "(stereo not shown) [2-[3-(3,5-Difluorobenzyl)-4,4,4-trifluoro-3-hydroxy-1,1-dimethylbutyl]-4-fluorophenol]", "IC50": "≤ 100"}, {"smiles": "CC(C)(CC(O)(Cc1cc(C(F)(F)F)cc(Cl)c1F)C(F)(F)F)c1cc([N+](=O)[O-])cc2c1OCC2", "note": "(stereo not shown)", "IC50": "≤ 100"}, {"smiles": "CC(C)(CC(O)(Cc1cc(C(F)(F)F)cc(Cl)c1F)C(F)(F)F)c1cccc(Cl)c1", "note": "(stereo not shown) [2-(3-Chloro-2-fluoro-5-trifluoromethylbenzyl)-4-(3-chlorophenyl)-1,1,1-trifluoro-4-methylpentan-2-ol]", "IC50": "≤ 100"}, {"smiles": "CC(C)(CC(O)(Cc1ccccc1)C(F)(F)F)c1ccccc1", "note": "(stereo not shown) [2-Benzyl-1,1,1-trifluoro-4-methyl-4-phenylpentan-2-ol]", "IC50": "≤ 100"}]}]}
